Assay results: US12083182B2, “Controlled-release CNP agonists with increased NEP stability” (ASCENDIS PHARMA GROWTH DISORDERS A/S, priority 2016, dated 2024)

Key:
[1] = Evaluation of cardiovascular effects in the conscious telemetered mouse (subcutaneous administration); format: in vivo, Crl:CD1(ICR) mice; settings: 800 μg CNP-38 (eq)/kg sc
Method: Male Crl:CD1(ICR) mice (age range 8-13 weeks and body weight range 27.3-35.6 g at start of dosing) were surgically implanted with a TA11PA-C10 telemetry transmitter (Data Sciences International (DSI)) in the carotid artery. The body of the transmitter was placed subcutaneously in the lateral flank of the mouse. The mice were dosed subcutaneously in a latin square crossover design with at least 72 hours between dosing occasions. […] At least four mice were included at each dose level. Blood pressure (systolic (SAP), diastolic (DAP) and mean (MAP) and heart rate (HR, derived from blood pressure), were recorded using a digital data capture system linked with a DSITM Ponemah data acquisition and analysis system. The capture system allowed recording of the cardiovascular parameters whilst the mice were in individual cages. On the day of each test session the animals were weighed and a predose recording was performed for at least 60 min prior to dosing. Each mouse was returned to the home cage and the cardiovascular parameters were recorded for approximately 48 hours postdose. Blood pressure and HR were reported at the following time points: −30, −20, −10, 5, 15 and 30 min postdose and 1, 2, 6, 12, 18, 24, 30, 36, 42 and 48 hours postdose. Each time point was presented as the average value of five minute's recording prior to the time point. The monitoring period was selected to cover exposure to the test items both prior to and after Tmax.

[2] = Pharmacokinetic profile of CNP-38 after subcutaneous single-dose administration to cynomolgus monkeys; format: in vivo; settings: single s.c. 40 μg/kg
Method: This study was performed in order to test the pharmacokinetics of CNP-38 after subcutaneous (s.c.) administration in cynomolgus monkeys. Three male monkeys (2-4 years old, 3-5 kg) received a single s.c. injection at a dose of 40 μg/kg of CNP-38. Blood samples were collected at 5, 10, 15, 30, 45 min and 1, 2, 4, 8 hours upon dose.
Method: Plasma levels of CNP were analysed using a commercially available competitive radioimmuno-assay (RK-012-03, Phoenix Pharmaceuticals, CA). The assay was applied essentially as described by the manufacturer. The assay is based on competitive binding between 125I-labelled CNP (supplied in the kit) and unlabeled CNP (from study sample or calibrants) to an anti-CNP antibody. […] By measuring the amount of 125I-labelled CNP bound as a function of the concentration of peptide, it is possible to construct a calibration curve from which the concentration of peptide in the sample can be determined.
A few changes to the supplied assay protocol were made. These changes included using in-house CNP calibrant and QC samples to secure consistency between assay runs. […] Due to matrix effects in monkey plasma, the minimal required dilution was set at 1:10, yielding an assay range of 150-1080 μg/mL CNP.

[3] = in vivo; cited from earlier work
[4] = doses up to 15 μg/kg, healthy volunteers; cited from earlier work

Compound	effect on heart rate (HR) ([1]; up to 48 hours postdose)	effect on blood pressure (MAP) ([1]; 5, 15 and 30 min post dose, CNP-38: 3 of 4 animals)	MAP 5 min post dose (mean±SD) ([1]; 5 min post dose) [mmHg]	MAP 15 min post dose (mean±SD) ([1]; 15 min post dose) [mmHg]	MAP 30 min post dose (mean±SD) ([1]; 30 min post dose) [mmHg]	MAP predose (mean±SD) ([1]; predose) [mmHg]	tolerability [2]	half-life [3] [min]	blood pressure effect [4]
CC[C@H](C)[C@@H]1NC(=O)[C@H](CCCNC(=N)N)NC(=O)[C@H](CC(=O)O)NC(=O)[C@H](CC(C)C)NC(=O)[C@H](CCCCN)NC(=O)[C@H](CC(C)C)NC(=O)CNC(=O)[C@H](Cc2ccccc2)NC(=O)[C@@H](NC(=O)CNC(=O)[C@H](CCCCN)NC(=O)[C@H](CO)NC(=O)[C@H](CC(C)C)NC(=O)CNC(=O)[C@H](CCCCN)NC(=O)[C@H](CCCCN)NC(=O)[C@H](CC(N)=O)NC(=O)[C@H](C)NC(=O)CNC(=O)[C@H](CCCCN)NC(=O)[C@H](Cc2ccc(O)cc2)NC(=O)[C@H](CCCCN)NC(=O)[C@H](CCCNC(=N)N)NC(=O)[C@H](C)NC(=O)[C@H](CC(N)=O)NC(=O)[C@@H]2CCCN2C(=O)[C@H](Cc2c[nH]cn2)NC(=O)[C@H](CCC(=O)O)NC(=O)[C@H](CCC(N)=O)NC(=O)[C@@H](N)CC(C)C)CSSC[C@@H](C(=O)O)NC(=O)CNC(=O)[C@H](CC(C)C)NC(=O)CNC(=O)[C@H](CO)NC(=O)[C@H](CCSC)NC(=O)[C@H](CO)NC(=O)CNC1=O [CNP-38]	not impacted	significant decrease in MAP	102.0 ± 7.5	89.5 ± 29.4	99.5 ± 25.2	106.8 ± 13.4	well tolerated		
BMN-111								20	mild hypotension
